Here are results for 10 molecules from article PMC5207785, “Arginine and Lysine Transporters Are Essential for Trypanosoma brucei” (PLoS ONE, 2017).

Data set [1] addresses T1, TbAAT5-3 (Trypanosoma brucei, UniProt Q57UX9).
T1 construct: gene Tb08.4A8.362; full-length ORF (1377 bp incl. stop) in pDR197, untagged, expressed in S. cerevisiae 21.983c; nt 96 resolved as C (Asp)
T1 sequence (Q57UX9 1-458): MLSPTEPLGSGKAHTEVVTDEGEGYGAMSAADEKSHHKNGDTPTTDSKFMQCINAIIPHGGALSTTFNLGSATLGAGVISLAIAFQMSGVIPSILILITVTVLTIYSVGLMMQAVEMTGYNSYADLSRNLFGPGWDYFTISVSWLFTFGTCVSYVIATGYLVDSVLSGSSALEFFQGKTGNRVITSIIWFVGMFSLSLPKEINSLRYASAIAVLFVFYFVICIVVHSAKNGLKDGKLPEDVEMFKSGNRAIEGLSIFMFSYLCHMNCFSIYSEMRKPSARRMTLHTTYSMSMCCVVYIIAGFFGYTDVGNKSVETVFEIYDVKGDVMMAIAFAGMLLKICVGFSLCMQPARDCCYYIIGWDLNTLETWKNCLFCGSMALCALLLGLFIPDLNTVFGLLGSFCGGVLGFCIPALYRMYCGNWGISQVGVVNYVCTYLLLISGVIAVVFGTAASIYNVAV
Kind of data set: competition of L-[3H]-arginine uptake in S. cerevisiae […]c. The class given is cell-based. To be noted: 500 µM, 50 μM L-arginine, pH 6.0.

For the next data set, the target named is T2, TbAAT16-1 (Trypanosoma brucei, UniProt Q381K2).
T2 construct: gene Tb11.01.7500; full-length ORF (1389 bp incl. stop) in pDR197, untagged, expressed in S. cerevisiae 22Δ7AA; syntenic TREU927 gene Tb927.11.15840
T2 sequence (Q381K2 1-462): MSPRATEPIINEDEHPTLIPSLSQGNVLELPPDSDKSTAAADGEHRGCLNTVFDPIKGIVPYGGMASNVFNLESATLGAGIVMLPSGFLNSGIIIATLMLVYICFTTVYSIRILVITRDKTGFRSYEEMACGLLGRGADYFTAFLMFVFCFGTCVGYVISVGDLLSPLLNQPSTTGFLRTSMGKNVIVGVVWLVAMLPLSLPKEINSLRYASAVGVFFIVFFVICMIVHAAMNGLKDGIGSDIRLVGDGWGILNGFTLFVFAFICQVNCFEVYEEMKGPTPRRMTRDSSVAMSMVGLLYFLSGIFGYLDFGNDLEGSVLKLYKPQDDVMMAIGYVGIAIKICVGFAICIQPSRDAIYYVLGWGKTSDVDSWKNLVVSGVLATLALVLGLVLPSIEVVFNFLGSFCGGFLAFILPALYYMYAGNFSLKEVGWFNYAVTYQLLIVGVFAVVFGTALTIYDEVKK
Kind of data set: competition of L-[3H]-lysine uptake in S. cerevisiae […]Δ7AA. The class given is cell-based. Particulars: 500 µM; 50 μM L-lysine; pH 4.5.

The target in data set [2] is T1, TbAAT5-3. Kind of data set: competition of L-[3H]-arginine uptake in S. cerevisiae […]c. The class given is cell-based. To be noted: 5000 µM; 50 μM L-arginine; pH 6.0.
Substrate in data set [3]: NCCCC[C@H](N)C(=O)O
Kind of data set: cells, lysate or membranes. To be noted: labelled compound, 30 °C, 100 mM glucose, empty-vector background subtracted, pH of this assay not given.

Substrate in data set [4]: N=C(N)NCCC[C@H](N)C(=O)O
The data set can be described thus: cells, lysate or membranes. The class given is cell-based, Trypanosoma brucei. To be noted: labelled compound, 30 °C, 100 mM glucose, empty-vector background subtracted, pH of this assay not given.

Turning to `N=C(N)NCCCC[C@H](N)C(=O)O` [Homoarginine], the “L-[^3H]-arginine uptake rate (%) / 10x” value at TbAAT5-3 [1] came to 25.6 ± 4.2%.

With `N=C(N)NCCC[C@H](N)C(=O)Nc1ccc2ccccc2c1` [Arginine-β-naphthylamide], the “L-[^3H]-arginine uptake rate (%) / 10x” value at TbAAT5-3 [1] (unspecific effect of the amphipathic compound not excluded) was determined as 69 ± 6.6%.

Take `N=C(N)NOCC[C@H](N)C(=O)O` [Canavanine]: the “L-[^3H]-arginine uptake rate (%) / 10x” value on TbAAT5-3 [1] is 38.5 ± 4.5%.

On to `NCCSC[C@H](N)C(=O)O` [Thialysine, S-(2-aminoethyl)-L-cysteine], for which, at TbAAT16-1, the “L-[^3H]-lysine uptake rate (%) / 10x” value came out at 35.3 ± 1.8%.

For the molecule `NCCCC[C@H](NC(=O)OCC1c2ccccc2-c2ccccc21)C(=O)O` [Fmoc-Lysine, N-α-(9-fluorenylmethyloxycarbonyl)-L-lysine], the “L-[^3H]-lysine uptake rate (%) / 10x” value on TbAAT16-1 worked out at 57.6 ± 6.9%.

Consider `COC(=O)[C@@H](N)CCCNC(=N)N` [Arginine methyl ester], for which the “L-[^3H]-arginine uptake rate (%) / 100x” value at TbAAT5-3 [2] turned out to be 67.6 ± 10.3%.

For the molecule `NCCCC[C@H](N)C(=O)O` [L-lysine], the “L-[^3H]-arginine uptake rate (%) / 100x” value at TbAAT5-3 [2] stood at 56.5 ± 8.2%.

Take `CCOC(=O)[C@@H](N)CCCNC(=N)N` [Arginine ethyl ester]: on TbAAT5-3 [2], the “L-[^3H]-arginine uptake rate (%) / 100x” value worked out at 72.5 ± 8.7%.

B1: TbAAT16-1 (Trypanosoma brucei brucei TREU927) (protein)
chain: MSPRATEPIINEDEHPTLIPSLSQGNVLELPPDSDKSTAAADGEHRGCLNTVFDPIKGIVPYGGMASNVFNLESATLGAGIVMLPSGFLNSGIIIATLMLVYICFTTVYSIRILVITRDKTGFRSYEEMACGLLGRGADYFTAFLMFVFCFGTCVGYVISVGDLLSPLLNQPSTTGFLRTSMGKNVIVGVVWLVAMLPLSLPKEINSLRYASAVGVFFIVFFVICMIVHAAMNGLKDGIGSDIRLVGDGWGILNGFTLFVFAFICQVNCFEVYEEMKGPTPRRMTRDSSVAMSMVGLLYFLSGIFGYLDFGNDLEGSVLKLYKPQDDVMMAIGYVGIAIKICVGFAICIQPSRDAIYYVLGWGKTSDVDSWKNLVVSGVLATLALVLGLVLPSIEVVFNFLGSFCGGFLAFILPALYYMYAGNFSLKEVGWFNYAVTYQLLIVGVFAVVFGTALTIYDEVKK
One may read the Km as the concentration of substrate that gives half-maximal velocity. Regarding B1, the Km in data set [3] was 4.3 ± 0.5 µM.

B2: TbAAT5-3 (Trypanosoma brucei brucei TREU927) (protein)
chain: MLSPTEPLGSGKAHTEVVTDEGEGYGAMSAADEKSHHKNGDTPTTDSKFMQCINAIIPHGGALSTTFNLGSATLGAGVISLAIAFQMSGVIPSILILITVTVLTIYSVGLMMQAVEMTGYNSYADLSRNLFGPGWDYFTISVSWLFTFGTCVSYVIATGYLVDSVLSGSSALEFFQGKTGNRVITSIIWFVGMFSLSLPKEINSLRYASAIAVLFVFYFVICIVVHSAKNGLKDGKLPEDVEMFKSGNRAIEGLSIFMFSYLCHMNCFSIYSEMRKPSARRMTLHTTYSMSMCCVVYIIAGFFGYTDVGNKSVETVFEIYDVKGDVMMAIAFAGMLLKICVGFSLCMQPARDCCYYIIGWDLNTLETWKNCLFCGSMALCALLLGLFIPDLNTVFGLLGSFCGGVLGFCIPALYRMYCGNWGISQVGVVNYVCTYLLLISGVIAVVFGTAASIYNVAV
notes: full-length ORF (1377 bp incl. stop) in pDR197, untagged, expressed in S. cerevisiae 21.983c; nt 96 resolved as C (Asp)
Take B2: the Km in data set [4] was found to be 3.6 ± 0.4 µM.
